What all share (assay): Prophylactic effect on ischemic breakdown of cytoskeletal proteins, 5-minute brain ischemia-reperfusion model
What all share (type): in vivo, gerbil

One experiment relates to MAP-2. On the procedure:
(§1) A gerbil was immobilized in supine position and median section was performed in the cervical region under local anesthesia. Then, the bilateral common carotid arteries were stripped off carefully not to injure the vagus and sympathetic nerves running in parallel, . Then, each common carotid artery was obstructed with a small clip and after an interval of 5, 10 or 15 minutes, the clips were removed. The animal was decapitated immediately, 4 days or 1 week after the removal of the clips, and the brain was isolated. Untreated animals served as controls and animals undergoing sham operation (involving the stripping procedure only) were also investigated. The isolated brain was sectioned under ice-cooling into the frontal cortex (upper 2/3, approximately corresponding to the 1st to the 5th layer, ∼80 mg), striatum (∼20 mg) and hippocampus (∼50 mg) and each portion was homogenized in 4 times volume of (v/w) of 0.01 M phosphate buffer (pH 7.2). Each homogenate was centrifuged at 100,000 G for 30 minutes to obtain a supernatant. Equal parts of these supernatants were subjected to SDS-polyacrylamide gel (5%) electrophoresis and the proteins, namely MAP-2 (MW: 250-260K) calspectin (MW: 230-240K) and clathrin (MW: 180K), were quantified by measuring the absorbances at 560 nm with a densitometer (CS-930, Shimazu), and the proportion of each protein to the total water-soluble protein (exactly, the integral sum of the absorbance areas) was calculated. In addition, the relative percentage to the value of the untreated control group was also calculated.
(§2) Two series of experiments were carried out. […] One hour after the reperfusion, the animal was killed by decapitation and the brain was removed. […] One hour after the final administration (day 5), the animal was decapitated and the brain was isolated. The isolated brain was subjected to fractionation and electrophoresis as described above.

The next experiment has as its system clathrin. The settings on record: for Total score, Clathrin: number of brain sites with significant effect. As to the method:
as §1, §2

For a further experiment, the system named is calspectin. To be noted: number of brain sites with significant effect. On the procedure:
as §1, §2

The mark [1] stands for this setting: Left: dosed 1 hour before ischemia, killed 1 hour after ischemia, number of brain sites with significant effect.
The mark [2] stands for this setting: Right: dosed 1 hour before ischemia and for 4 subsequent days, number of brain sites with significant effect.
Setting [3] is: sum of left and right (in brackets).
Where [4] appears, read: Left: dosed 1 hour before ischemia, killed 1 hour after ischemia.
Setting [5] is: Right: dosed 1 hour before ischemia and for 4 subsequent days.

Each structure is given as a SMILES string.

Take `COC(=O)C1=C(C)NC(C)=C(C(=O)OCCN(C)Cc2ccccc2)C1c1cccc([N+](=O)[O-])c1` (centres unmarked) [Nicardipine, nicardipine]: the figures for the “Total score, MAP-2” value in the experiment with MAP-2 (setting [1]), with MAP-2 (setting [2]) and in the experiment on MAP-2 (setting [3]) were 2, 2 and 4, respectively. In addition, the “Total score, Clathrin” value in the experiment with clathrin (setting [4]) and in the experiment with clathrin (setting [5]) was 0/0 (0) each time. Also, the “Total score, Calspectin” value in the experiment on calspectin (setting [4]) and with calspectin (setting [5]) was 0/0 (0) throughout.

On to `COCCOC(=O)C1=C(C)NC(C)=C(C(=O)OC(C)C)C1c1cccc([N+](=O)[O-])c1` (centres unmarked) [Nimodipine, nimodipine], for which the figures for the “Total score, MAP-2” value with MAP-2 (setting [1]), with MAP-2 (setting [2]) and in the experiment with MAP-2 (setting [3]) were 2, 1 and 3, respectively. Moreover, the Clathrin protein concentration was 81.9± 5.5 % of normal value with clathrin (Cortex, 0.01 mg/kg s.c. 1 hour before ischemia, 1 hour after ischemia); 52.3± 9.5 % of normal value with clathrin (Cortex, 0.1 mg/kg s.c. 1 hour before ischemia and once a day for 4 days, 4 days after ischemia); 81.8± 6.3 % of normal value in the experiment on clathrin (Cortex, 0.1 mg/kg s.c. 1 hour before ischemia, 1 hour after ischemia); 55.8± 8.5 % of normal value in the experiment on clathrin (Cortex, 1 mg/kg s.c. 1 hour before ischemia and once a day for 4 days, 4 days after ischemia); 85.9± 4.0 % of normal value in the experiment with clathrin (Cortex, 1 mg/kg s.c. 1 hour before ischemia, 1 hour after ischemia); 54.6± 5.7 % of normal value with clathrin (Cortex, 10 mg/kg s.c. 1 hour before ischemia and once a day for 4 days, 4 days after ischemia). The Clathrin protein concentration is 52.1± 3.3 % of normal value with clathrin (Hippocampus, 0.01 mg/kg s.c. 1 hour before ischemia, 1 hour after ischemia); 46.6± 4.2 % of normal value in the experiment with clathrin (Hippocampus, 0.1 mg/kg s.c. 1 hour before ischemia and once a day for 4 days, 4 days after ischemia); 56.7± 7.1 % of normal value in the experiment on clathrin (Hippocampus, 0.1 mg/kg s.c. 1 hour before ischemia, 1 hour after ischemia); 51.2±10.7 % of normal value in the experiment on clathrin (Hippocampus, 1 mg/kg s.c. 1 hour before ischemia and once a day for 4 days, 4 days after ischemia); 61.6±12.2 % of normal value with clathrin (Hippocampus, 1 mg/kg s.c. 1 hour before ischemia, 1 hour after ischemia); 64.6±15.0 % of normal value with clathrin (Hippocampus, 10 mg/kg s.c. 1 hour before ischemia and once a day for 4 days, 4 days after ischemia). The Clathrin protein concentration with clathrin (Striatum, 0.01 mg/kg s.c. 1 hour before ischemia, 1 hour after ischemia) is reported as 70.5±21.1 % of normal value; with clathrin (Striatum, 0.1 mg/kg s.c. 1 hour before ischemia and once a day for 4 days, 4 days after ischemia), 53.6±11.3 % of normal value; with clathrin (Striatum, 0.1 mg/kg s.c. 1 hour before ischemia, 1 hour after ischemia), 68.7±11.9 % of normal value; with clathrin (Striatum, 1 mg/kg s.c. 1 hour before ischemia and once a day for 4 days, 4 days after ischemia), 57.9± 5.3 % of normal value; in the experiment on clathrin (Striatum, 1 mg/kg s.c. 1 hour before ischemia, 1 hour after ischemia), 69.8±12.7 % of normal value; with clathrin (Striatum, 10 mg/kg s.c. 1 hour before ischemia and once a day for 4 days, 4 days after ischemia), 62.0±10.2 % of normal value. Also, the “Total score, Clathrin” value in the experiment on clathrin (setting [4]) and with clathrin (setting [5]) was 0/0 (0) each time. Also, the “Total score, Calspectin” value in the experiment with calspectin (setting [4]) and in the experiment with calspectin (setting [5]) was 0/0 (0) throughout.

For the origin of these results see EP0322747B1, “A brain neuron protecting agent containing a dihydropyridine compound” (priority 1987, dated 1989).
